Test results as given in PubChem BioAssay AID330 (DTP/NCI, 2004).
Values joined by “and” are separate entries in the source; they are usually repeats but may differ in a detail not shown here. Equal entries are not always repeated. Inconclusive results and toxic doses are left out. Rule for the calls: active = survival T/C of 150% or more; inactive = T/C below 125% in these data.

Test system: P388 leukemia ip, CD2F1 mice, survival T/C
Assay: NCI In Vivo Anticancer Drug Screen. Data for tumor model P388 Leukemia (intraperitoneal) in CD2F1 (CDF1) mice
Conditions: endpoint: median survival time, higher = longer survival
Outline: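 Mice carrying the transplanted tumor received test compound or vehicle. Survival was recorded in each group, and the value is the treated-group measurement divided by that of the vehicle-treated control group.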

[1] = dose: 50.0 mg/kg/injection, schedule: Q04DX003 (ip), vehicle: saline with Tween-80
[2] = dose: 100.0 mg/kg/injection, schedule: Q04DX003 (ip), vehicle: saline with Tween-80
[3] = dose: 200.0 mg/kg/injection, schedule: Q04DX003 (ip), vehicle: saline with Tween-80
[4] = dose: 50.0 mg/kg/injection, schedule: Q01DX005 (ip), vehicle: saline with Tween-80
[5] = dose: 100.0 mg/kg/injection, schedule: Q01DX005 (ip), vehicle: saline with Tween-80
[6] = dose: 200.0 mg/kg/injection, schedule: Q01DX005 (ip), vehicle: saline with Tween-80
[7] = dose: 50.0 mg/kg/injection, schedule: Q01DX009 (ip), vehicle: saline with Tween-80
[8] = dose: 50.0 mg/kg/injection, schedule: Q01DX009 (ip), vehicle: Klucel (hydroxypropylcellulose) (HPC)
[9] = dose: 100.0 mg/kg/injection, schedule: Q01DX009 (ip), vehicle: Klucel (hydroxypropylcellulose) (HPC)
[10] = dose: 200.0 mg/kg/injection, schedule: Q01DX009 (ip), vehicle: Klucel (hydroxypropylcellulose) (HPC)

Measured: T/C

CCCCOC(=O)c1ccccn1
inactive: [1] 95 % of control | [2] 100 % of control | [3] 95 % of control

CC(Cc1ccccc1)NC(=O)c1ccncc1 (stereo unspecified)
inactive: [4] 103 % of control | [5] 102 % of control | [6] 100 % of control

O=C(O)CCc1cccnc1
inactive: dose: 266.0 mg/kg/injection, schedule: Q01DX009 (ip), vehicle: saline with Tween-80 105 % of control | dose: 400.0 mg/kg/injection, schedule: Q01DX009 (ip), vehicle: saline with Tween-80 115 % of control

CCCN(C)C12CN3CN(CN(C3)C1)C2
inactive: dose: 100.0 mg/kg/injection, schedule: Q04DX003 (ip), vehicle: saline 106 % of control | dose: 200.0 mg/kg/injection, schedule: Q04DX003 (ip), vehicle: saline 95 % of control | dose: 400.0 mg/kg/injection, schedule: Q04DX003 (ip), vehicle: saline 100 % of control

CC1(C)COC(CC2CCCCC2)=N1
inactive: [7] 104 % of control | [1] 100 % of control | dose: 100.0 mg/kg/injection, schedule: Q01DX009 (ip), vehicle: saline with Tween-80 100 % of control | [2] 104 % of control | [3] 90 % of control

NC(=O)c1cc(Cl)nc2nc(Cl)nc(N)c12
inactive: [4] 105 % of control | [1] 101 % of control | [5] 105 % of control | [2] 100 % of control and 114 % of control | [6] 108 % of control | [3] 106 % of control | dose: 400.0 mg/kg/injection, schedule: Q01DX005 (ip), vehicle: saline with Tween-80 112 % of control | dose: 400.0 mg/kg/injection, schedule: Q04DX003 (ip), vehicle: saline with Tween-80 110 % of control and 111 % of control

Clc1cc(Cl)c(OCC#CI)c(Cl)c1Cl
inactive: [7] 86 % of control | [2] 109 % of control | [3] 100 % of control

Nc1ccc2oc3ccccc3c2c1
inactive: [2] 100 % of control | [3] 103 % of control

C=C1C(=O)OC2CC(C)C3CC(OC)OC(OC)C3(C)CC12 (stereo unspecified)
inactive: [8] 105 % of control and 97 % of control | [9] 103 % of control and 114 % of control | [10] 123 % of control and 97 % of control | dose: 400.0 mg/kg/injection, schedule: Q01DX009 (ip), vehicle: Klucel (hydroxypropylcellulose) (HPC) 119 % of control

COc1cccc(-n2cc[n+](C)c2/C=N/O)c1
inactive: dose: 25.0 mg/kg/injection, schedule: Q01DX009 (ip), vehicle: saline with Tween-80 105 % of control | [7] 108 % of control

O=C(Nc1ccccc1Cl)Oc1ccc(Cl)cc1Cl
inactive: [8] 101 % of control | [9] 110 % of control | [10] 106 % of control

NC(=O)NO
inactive: dose: 112.0 mg/kg/injection, schedule: Q03HX024 (ip), vehicle: saline 83 % of control | dose: 750.0 mg/kg/injection, schedule: Q01DX009 (ip), vehicle: saline 100 % of control and 98 % of control | dose: 2000.0 mg/kg/injection, schedule: Q01DX001 (ip), vehicle: saline 98 % of control
active: dose: 200.0 mg/kg/injection, schedule: Q01DX009 (ip), vehicle: saline 160 % of control | dose: 300.0 mg/kg/injection, schedule: Q01DX009 (ip), vehicle: saline 185 % of control | dose: 450.0 mg/kg/injection, schedule: Q01DX009 (ip), vehicle: saline 160 % of control and 184 % of control | dose: 500.0 mg/kg/injection, schedule: Q01DX009 (ip), vehicle: saline 200 % of control

O=C1ON=C(c2ccccc2)/C1=C\C=C\c1ccccc1
inactive: dose: 60.0 mg/kg/injection, schedule: Q01DX005 (ip), vehicle: saline with Tween-80 95 % of control | dose: 120.0 mg/kg/injection, schedule: Q01DX005 (ip), vehicle: saline with Tween-80 98 % of control | dose: 240.0 mg/kg/injection, schedule: Q01DX005 (ip), vehicle: saline with Tween-80 103 % of control

CCN(CC)C(=O)C(F)C(F)(F)C(F)(F)C(F)C(=O)N(CC)CC (stereo unspecified)
inactive: [8] 108 % of control | [9] 99 % of control | [10] 98 % of control
